# In US11771699B2, “Combined treatment with a TLR7 agonist and an HBV capsid assembly inhibitor” (Hoffmann-La Roche Inc., priority 2015, dated 2023):
# Read-outs that look alike come from different tables or passages of the source.
# Experiments:
# HBV = HBV infected transgenic mouse or humanized mouse models; cited from earlier work
# HBV (AAV-HBV) = type: in vivo, C57BL/6 mice; details: for reduction in HBV DNA: Compound 2 12 mg/kg QD; for effect on HBV DNA: Example 7, FIG. 4-6; for effect on HBV DNA / effect on HBsAg: single treatment, 6 weeks PO, Compound 5 12 mg/kg QD; for effect on HBsAg: Example 7, FIG. 5-6
# Excerpt: 4-week old male C57BL/6 mice, specific pathogen free, were purchased from Shanghai Laboratory Animal Center of Chinese Academy of Sciences (SLAC) and housed in an animal care facility in individually ventilated cages under controlled temperature and light conditions following the Institutional Animal Care guidelines. AAV/HBV virus was purchased from Beijing FivePlus Molecular Medicine Institute (Beijing, China). This recombinant virus carries 1.3 copies of the HBV genome, which was packaged in AAV serotype 8 (AAV8) capsids. C57BL/6 mice were injected with […], of recombinant virus, diluted in saline buffer, through tail vein injection. The mice were bled at days 7 and 14 post injection to monitor HBV surface antigen (HBsAg), HBV e antigen (HBeAg), HBs antibody (HBsAb) and HBV genomic DNA in serum, and then were randomly grouped according to these HBV biomarkers.
# Measurement of HBV Biomarkers
# Serum HBsAg and HBeAg was measured using CLIA kits (Autobio Diagnostics Co., Ltd, Zhengzhou, China) according to the manufacturer's instructions. The lower limit of detection for HBsAg and HBeAg was 0.1 ng/mL and 0.25 NCU/mL (national clinical unit/mL) respectively. Serum dilution of 100-fold (for HBsAg) or 500-fold (for HBeAg) was used to obtain values within the linear range of the standard curve. Serum HBV DNA was extracted using a MagNA Pure 96 DNA and Viral NA Small Volume Kit (Roche) following the manufacturer's instructions. The DNA samples were analyzed by real-time quantitative PCR (qPCR) using a HBV-specific primer and probe set for specific amplification and detection of a 128 bp HBV genome region from the nucleotide 2969 to 3096. The sequences of the primers and probe are shown as follows: […]
# Anti-HBs in the serum was measured on day 24 after the treatment ended using Anti-HBs CLIA kits (Autobio Diagnostics Co., Ltd, Zhengzhou, China) following the manufacturer's instructions. The serum samples were 3-fold diluted and 50 μL of the diluted samples were used for the assay.
# 10 mg/mL of Compound 1 and 1.2 mg/mL of Compound 2 was formulated as an inclusion complex with 2% Klucel LF, 0.1% Polysorbate 80, and 0.1% Parabens in water. All the mice were orally dosed for a total of 6 weeks followed by a 2-week off-treatment period. In one single-treatment control study, the five mice of the group Compound 1 were treated with Compound 1 at 100 mg/kg every other day (QOD). The vehicle group was treated with an equivalent volume of oral-QD vehicle placebo (2% Klucel LF, 0.1% Polysorbate 80, and 0.1% Parabens in water). In the combination therapy study, the five mice of the group Compound 2 were administered at 12 mg/kg orally once daily (QD). The group Combo received 100 mg/kg of Compound 1 QOD plus 12 mg/kg Compound 2 QD. The vehicle group was treated with an equivalent volume of oral-QD vehicle placebo (2% Klucel LF, 0.1% Polysorbate 80, and 0.1% Parabens in water).
# In another independent study, more combinations of a TLR7 agonist plus a Capsid inhibitor and corresponding single compound treatments were tested (summarized in Table 2) using the same AAV-HBV mouse model and method of measurement of HBV biomarkers described in Example 5.
# In this study, eight mice were recruited in each group, and animals received the first dose on day 28 post AAV-HBV infection. The tested combinations included Compound 1 plus Compound 4, Compound 3 plus Compound 4, and Compound 1 plus Compound 5.
# human TLR7 = target: T1, human TLR7 (Homo sapiens, UniProt Q9NYK1); assay: HEK293-Blue-hTLR-7 cells assay (NF-κB/AP-1 SEAP reporter); type: cell-based; details: 20 hours incubation, read-out: TLR7 agonism activity in HEK293-hTLR-7 assay
# T1 sequence (Q9NYK1 27-1049): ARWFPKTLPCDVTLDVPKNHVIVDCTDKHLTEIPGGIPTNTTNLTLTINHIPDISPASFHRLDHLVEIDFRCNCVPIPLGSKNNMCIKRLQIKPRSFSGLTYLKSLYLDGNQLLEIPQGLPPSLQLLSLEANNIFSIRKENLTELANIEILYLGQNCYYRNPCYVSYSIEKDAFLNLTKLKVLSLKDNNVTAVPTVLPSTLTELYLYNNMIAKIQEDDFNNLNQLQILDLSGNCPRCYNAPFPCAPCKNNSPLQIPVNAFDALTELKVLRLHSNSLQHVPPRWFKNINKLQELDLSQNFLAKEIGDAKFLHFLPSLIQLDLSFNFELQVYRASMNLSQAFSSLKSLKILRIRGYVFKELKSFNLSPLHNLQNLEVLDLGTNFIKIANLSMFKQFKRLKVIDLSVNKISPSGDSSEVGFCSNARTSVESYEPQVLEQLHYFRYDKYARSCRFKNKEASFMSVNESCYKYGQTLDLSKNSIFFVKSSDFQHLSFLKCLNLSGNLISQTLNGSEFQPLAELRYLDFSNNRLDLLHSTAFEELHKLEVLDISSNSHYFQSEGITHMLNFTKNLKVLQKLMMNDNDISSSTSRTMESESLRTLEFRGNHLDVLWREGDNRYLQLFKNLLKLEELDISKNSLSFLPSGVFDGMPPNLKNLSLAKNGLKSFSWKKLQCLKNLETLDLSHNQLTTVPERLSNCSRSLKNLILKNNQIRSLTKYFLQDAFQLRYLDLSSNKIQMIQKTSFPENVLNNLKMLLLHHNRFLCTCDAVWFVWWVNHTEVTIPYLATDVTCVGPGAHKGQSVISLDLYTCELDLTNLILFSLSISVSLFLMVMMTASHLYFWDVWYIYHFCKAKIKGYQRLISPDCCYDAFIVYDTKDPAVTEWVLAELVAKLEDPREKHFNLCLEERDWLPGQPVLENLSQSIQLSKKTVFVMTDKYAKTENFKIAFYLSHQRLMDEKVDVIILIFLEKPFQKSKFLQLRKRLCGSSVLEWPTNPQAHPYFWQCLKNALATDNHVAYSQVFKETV
# Excerpt: HEK293-Blue-hTLR-7 Cells Assay:
# A stable HEK293-Blue-hTLR-7 cell line was purchased from InvivoGen (Cat.#: hkb-htlr7, San Diego, Calif., USA). These cells were designed for studying the stimulation of human TLR7 by monitoring the activation of NF-κB. A SEAP (secreted embryonic alkaline phosphatase) reporter gene was placed under the control of the IFN-β[…] minimal promoter fused to five NF-κB and AP-1-binding sites. The SEAP was induced by activating NF-κB and AP-1 via stimulating HEK-Blue hTLR7 cells with TLR7 ligands. Therefore the reporter expression was regulated by the NF-κB promoter upon stimulation of human TLR7 for 20 hours. The cell culture supernatant SEAP reporter activity was determined using QUANTI-Blue™ kit (Cat.#: rep-qb1, Invivogen, San Diego, Ca, USA) at a wavelength of 640 nm, a detection medium that turns purple or blue in the presence of alkaline phosphatase.
# HEK293-Blue-hTLR7 cells were incubated at a density of 250,000˜450,000 cells/mL in a volume of 180 μL in a 96-well plate in Dulbecco's Modified Eagle's medium (DMEM) containing 4.5 g/L glucose, 50 U/mL penicillin, […], […], 2 mM L-glutamine, 10% (v/v) heat-inactivated fetal bovine serum for 24 h. […]
# [1] = Example 6, FIG. 1, serum, after a 6-week treatment, oral, Compound 1 100 mg/kg QOD
# [2] = Example 6, FIG. 1, serum, after a 6-week treatment, Compound 2 12 mg/kg QD oral
# [3] = Compound 4 20 mg/kg QD, Compound 3 30 mg/kg QOD
# [4] = Example 8, FIG. 8, serum, end of the 6-week treatment, Compound 8 300 mg/kg QOD PO
structure (smiles),measurement,setting,value
COC(=O)C1=C(C)NC(c2ncc(F)cc2F)=N[C@H]1c1ccc(F)cc1Cl [Bay 41-4109],in vivo efficacy (HBV DNA),HBV,in vivo efficacy with HBV DNA reduction
"CC[C@H](OC(C)=O)[C@@H]1C[C@@H](O)[C@H](n2c(=O)sc3cnc(N)nc32)O1 [Compound 1, [(1S)-1-[(2S,4R,5R)-5-(5-amino-2-oxo-thiazolo[4,5-d]pyrimidin-3-yl)-4-hydroxy-tetrahydrofuran-2-yl]propyl] acetate]",reduction in HBsAg,HBV (AAV-HBV); [1],more than 1 log
same,reduction in HBV DNA,HBV (AAV-HBV); [1],more than 2 log
"CCOC(=O)C1=C(CN2CCN3C(=O)N(CC(C)(C)C(=O)O)C[C@@H]3C2)NC(c2nccs2)=N[C@H]1c1cccc(F)c1Cl [Compound 2, 3-[(8aS)-7-[[(4R)-4-(2-chloro-3-fluoro-phenyl)-5-ethoxycarbonyl-2-thiazol-2-yl-1,4-dihydropyrimidin-6-yl]methyl]-3-oxo-5,6,8,8a-tetrahydro-1H-imidazo[1,5-a]pyrazin-2-yl]-2,2-dimethyl-propanoic acid]",reduction in HBV DNA,HBV (AAV-HBV); [1],more than 3 log
same,HBV DNA level,HBV (AAV-HBV); [2],below the LLQ
same,HBsAg level (effect in words),HBV (AAV-HBV); [2],moderately reduced
"CC(=O)O[C@@H](C1CC1)[C@H]1O[C@@H](n2c(=O)sc3cnc(N)nc32)CS1 [Compound 3, [(S)-[(2S,5R)-5-(5-amino-2-oxo-thiazolo[4,5-d]pyrimidin-3-yl)-1,3-oxathiolan-2-yl]-cyclopropyl-methyl] acetate]",effect on HBV DNA,HBV (AAV-HBV); [3],reduced
same,effect on HBsAg,HBV (AAV-HBV); Compound 3 30 mg/kg QOD,reduced
"CCOC(=O)C1=C(CN2CCN3C(=O)N(CC(C)(C)C(=O)O)C[C@@H]3C2)NC(c2nccs2)=N[C@H]1c1cccc(F)c1C [Compound 4, 3-[(8aS)-7-[[(4S)-5-ethoxycarbonyl-4-(3-fluoro-2-methyl-phenyl)-2-thiazol-2-yl-1,4-dihydropyrimidin-6-yl]methyl]-3-oxo-5,6,8,8a-tetrahydro-1H-imidazo[1,5-a]pyrazin-2-yl]-2,2-dimethyl-propanoic acid]",effect on HBV DNA,HBV (AAV-HBV); [3],inhibited
same,HBsAg reduction,"HBV (AAV-HBV); Example 7, FIG. 4 and 5, serum, end of 6-week treatment, PO, Compound 1 100 mg/kg QOD, Compound 3 30 mg/kg QOD, Compound 4 20 mg/kg QD",2 log
"COC(=O)C1=C(CN2[C@@H]3C[C@H](CC(=O)O)C[C@H]2C(F)(F)C3)NC(c2nccs2)=N[C@H]1c1cccc(F)c1Cl [Compound 5, 2-[(1R,3S,5S)-8-[[(4R)-4-(2-chloro-3-fluoro-phenyl)-5-methoxycarbonyl-2-thiazol-2-yl-1,4-dihydropyrimidin-6-yl]methyl]-6,6-difluoro-8-azabicyclo[3.2.1]octan-3-yl]acetic acid]",effect on HBV DNA,HBV (AAV-HBV); [3],reduced
same,effect on HBsAg,HBV (AAV-HBV); Compound 3 30 mg/kg QOD,reduced
"CC(=O)O[C@@H]1C[C@@H](CO)O[C@H]1n1c(=O)sc2cnc(N)nc21 [Compound 8, 5-amino-3-(2′-O-acetyl-3′-deoxy-β-D-ribofuranosyl)-3H-thiazolo[4,5-d]pyrimidin-2-one]",HBV DNA reduction,HBV (AAV-HBV); [4],about 2 log
same,HBsAg reduction,HBV (AAV-HBV); [4],~1.5 log
CC[C@H](O)[C@@H]1C[C@@H](O)[C@H](n2c(=O)sc3c(=O)[nH]c(N)nc32)O1 [compound 11],EC50,human TLR7,72 µM
